# Source: US20260365670A1, “EGFR INHIBITORS AND USES THEREOF” (DIZAL (JIANGSU) PHARMACEUTICAL CO., LTD., priority 2022, published 2026)
# Where two headings read alike, the source gives them in different places.
# Columns and labels:
# EGFR wild type = target: T1, EGFR wild type (Homo sapiens, UniProt P00533); assay: Inhibition of EGFR wild type biochemical enzymatic activity (HTRF); conditions: EGFR wild type, 1 mM ATP, 1 h at room temperature
# T1 construct: purchased Carna Bio
# Procedure, shortened: (§1)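 Using a high ATP level (1 mM), wild-type and mutant EGFR enzymes were incubated 1 h at room temperature with inhibitor and 1 μM biotinylated TK substrate. Phosphorylation was quantified as the 665/615 nm HTRF ratio. IC50s were derived by logistic fitting.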
# EGFR L858R = target: T2, EGFR L858R (Homo sapiens, UniProt P00533, L858R); assay: Inhibition of EGFR L858R biochemical enzymatic activity (HTRF); conditions: 1 mM ATP, 1 h at room temperature
# T2 construct: purchased Carna Bio
# Procedure, shortened: as §1
# EGFR L858R/T790M = target: T3, EGFR L858R/T790M (Homo sapiens, UniProt P00533, L858R/T790M); assay: Inhibition of EGFR L858R/T790M biochemical enzymatic activity (HTRF); conditions: EGFR L858R/T790M, 1 mM ATP, 1 h at room temperature
# T3 construct: purchased Carna Bio
# Procedure, shortened: as §1
# EGFR Exon19Del = target: T4, EGFR Exon19Del (Homo sapiens, UniProt P00533, DEL746-750); assay: Inhibition of EGFR Exon19Del biochemical enzymatic activity (HTRF); conditions: 1 mM ATP, 1 h at room temperature
# T4 construct: purchased Carna Bio
# Procedure, shortened: as §1
# EGFR Exon19Del/T790M = target: T5, EGFR Exon19Del/T790M (Homo sapiens, UniProt P00533, DEL746-750/T790M); assay: Inhibition of EGFR Exon19Del/T790M biochemical enzymatic activity (HTRF); conditions: EGFR Exon19Del/T790M, 1 mM ATP, 1 h at room temperature
# T5 construct: purchased Carna Bio
# Procedure, shortened: as §1
# EGFR[T790M/C797S/L858R] = target: T6, EGFR[T790M/C797S/L858R] (Homo sapiens, UniProt P00533, C797S/L858R/T790M); assay: Inhibition of EGFR[T790M/C797S/L858R] biochemical enzymatic activity (HTRF); conditions: EGFR[T790M/C797S/L858R], 1 mM ATP, 1 h at room temperature
# T6 construct: purchased Carna Bio
# Procedure, shortened: as §1
# [1] = target: T7, EGFR[T790M/C797S/d746-750] (Homo sapiens, UniProt P00533, C797S/DEL746-750/T790M); assay: Inhibition of EGFR[T790M/C797S/d746-750] biochemical enzymatic activity (HTRF); conditions: 1 mM ATP, 1 h at room temperature
# T7 construct: purchased Carna Bio
# Procedure, shortened: as §1
# EGFR (d746-750 C797S) = target: T8, EGFR (d746-750 C797S) (Homo sapiens, UniProt P00533, C797S/DEL746-750); assay: Inhibition of EGFR (d746-750 C797S) biochemical enzymatic activity (HTRF); conditions: EGFR (d746-750 C797S), 1 mM ATP, 1 h at room temperature
# T8 construct: purchased signalchem
# Procedure, shortened: as §1
# EGFR (C797S L858R) = target: T9, EGFR (C797S L858R) (Homo sapiens, UniProt P00533, C797S/L858R); assay: Inhibition of EGFR (C797S L858R) biochemical enzymatic activity (HTRF); conditions: EGFR (C797S L858R), 1 mM ATP, 1 h at room temperature
# T9 construct: purchased signalchem
# Procedure, shortened: as §1
# [2] = system: Ba/F3 cells expressing EGFR mutations; assay: Cell proliferation assay, Ba/F3 cells expressing EGFR mutations (CellTiter-Glo, 72 hours); format: cell-based; conditions: Mus musculus, BaF3, 72 h
# Procedure, shortened: (§2)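 Ba/F3 cells (5000/well) and PC-9 cells (500/well, RPMI1640 with 10% FBS) were plated overnight and then dosed with a compound concentration series. Viable cells were read at day 0 (G0) and after treatment (G3). GI50 came from curve fits of G0-corrected proliferation relative to DMSO.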
# PC-9 = assay: Cell proliferation assay, PC-9 cells (CellTiter-Glo, 72 hours); format: cell-based; conditions: Homo sapiens, PC-9, 72 h, PC9 cells, read-out: GI50 PC9
# Procedure, shortened: as §2
# [3] = EGFR Exon19Del, read-out: IC50 @Del19
# [4] = read-out: IC50 @T790M- C797S - L858R
# [5] = EGFR[T790M/C797S/d746-750], read-out: IC50 @T790M - C797S - Del19
# [6] = BaF3 cells, EGFR DEL19 - C797S, read-out: GI50 DEL19 - C797S/BaF3
# [7] = BaF3 cells, EGFR DEL19 - T790-C797S, read-out: GI50 DEL19 - T790-C797S/BaF3
# [8] = BaF3 cells, EGFR L858R - C797S, read-out: GI50 L858R - C797S/BaF3
# [9] = BaF3 cells, EGFR L858R - T790-C797S, read-out: GI50 L858R - T790-C797S/BaF3
# [10] = BaF3 cells, EGFR L858R - T790M, read-out: GI50 L858R - T790M/BaF3
# [11] = BaF3 cells, EGFR L858R, read-out: GI50 L858R/BaF3
# [12] = EGFR DEL19 - T790M, read-out: GI50 DEL19 - T790M
# T9 sequence (P00533 25-1210 C797S/L858R): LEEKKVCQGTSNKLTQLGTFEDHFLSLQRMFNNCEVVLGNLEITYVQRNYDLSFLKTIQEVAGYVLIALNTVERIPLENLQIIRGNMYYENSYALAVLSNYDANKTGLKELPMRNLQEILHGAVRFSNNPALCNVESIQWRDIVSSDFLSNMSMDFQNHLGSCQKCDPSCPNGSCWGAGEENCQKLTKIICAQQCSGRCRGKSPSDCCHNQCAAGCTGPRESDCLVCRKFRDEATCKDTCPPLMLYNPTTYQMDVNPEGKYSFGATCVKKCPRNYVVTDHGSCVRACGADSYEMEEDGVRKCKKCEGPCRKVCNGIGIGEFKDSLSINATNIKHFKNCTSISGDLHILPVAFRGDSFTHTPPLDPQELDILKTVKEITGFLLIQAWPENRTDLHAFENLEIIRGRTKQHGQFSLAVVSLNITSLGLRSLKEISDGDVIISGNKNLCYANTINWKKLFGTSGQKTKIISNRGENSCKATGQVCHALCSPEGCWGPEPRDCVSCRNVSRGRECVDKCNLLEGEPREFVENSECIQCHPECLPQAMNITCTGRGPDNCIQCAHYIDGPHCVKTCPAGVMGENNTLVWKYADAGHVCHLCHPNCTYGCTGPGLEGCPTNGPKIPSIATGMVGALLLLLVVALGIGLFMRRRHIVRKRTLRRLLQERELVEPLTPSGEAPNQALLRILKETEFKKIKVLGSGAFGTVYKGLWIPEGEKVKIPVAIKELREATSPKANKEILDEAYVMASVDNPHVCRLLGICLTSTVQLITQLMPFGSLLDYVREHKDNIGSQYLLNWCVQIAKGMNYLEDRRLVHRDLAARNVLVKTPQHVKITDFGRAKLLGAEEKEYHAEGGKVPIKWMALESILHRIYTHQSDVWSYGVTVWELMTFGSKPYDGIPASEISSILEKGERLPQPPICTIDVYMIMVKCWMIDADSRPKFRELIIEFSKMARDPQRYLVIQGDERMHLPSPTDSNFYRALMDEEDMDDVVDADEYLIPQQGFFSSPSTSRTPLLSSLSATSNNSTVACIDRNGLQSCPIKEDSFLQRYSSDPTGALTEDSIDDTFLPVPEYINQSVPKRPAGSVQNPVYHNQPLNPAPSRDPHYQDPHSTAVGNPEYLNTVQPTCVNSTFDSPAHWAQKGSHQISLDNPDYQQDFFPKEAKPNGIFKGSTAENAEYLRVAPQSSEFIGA
# T4 sequence (P00533 with tags, fused parts or gaps DEL746-750 limits assumed): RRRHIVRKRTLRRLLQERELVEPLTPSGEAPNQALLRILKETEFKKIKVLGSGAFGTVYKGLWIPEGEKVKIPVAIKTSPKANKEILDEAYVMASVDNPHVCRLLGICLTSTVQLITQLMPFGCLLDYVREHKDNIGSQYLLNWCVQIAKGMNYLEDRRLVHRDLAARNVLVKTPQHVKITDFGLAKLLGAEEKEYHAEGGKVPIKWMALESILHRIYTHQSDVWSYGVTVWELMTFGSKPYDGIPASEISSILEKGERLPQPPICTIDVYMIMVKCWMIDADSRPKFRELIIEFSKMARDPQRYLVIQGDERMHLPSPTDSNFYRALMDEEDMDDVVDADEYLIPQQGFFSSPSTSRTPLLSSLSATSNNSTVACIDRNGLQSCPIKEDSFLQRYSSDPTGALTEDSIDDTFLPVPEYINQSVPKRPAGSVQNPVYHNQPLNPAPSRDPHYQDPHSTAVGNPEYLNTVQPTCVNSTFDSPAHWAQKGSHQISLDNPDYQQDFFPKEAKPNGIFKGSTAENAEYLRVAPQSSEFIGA
# T2 sequence (P00533 25-1210 L858R): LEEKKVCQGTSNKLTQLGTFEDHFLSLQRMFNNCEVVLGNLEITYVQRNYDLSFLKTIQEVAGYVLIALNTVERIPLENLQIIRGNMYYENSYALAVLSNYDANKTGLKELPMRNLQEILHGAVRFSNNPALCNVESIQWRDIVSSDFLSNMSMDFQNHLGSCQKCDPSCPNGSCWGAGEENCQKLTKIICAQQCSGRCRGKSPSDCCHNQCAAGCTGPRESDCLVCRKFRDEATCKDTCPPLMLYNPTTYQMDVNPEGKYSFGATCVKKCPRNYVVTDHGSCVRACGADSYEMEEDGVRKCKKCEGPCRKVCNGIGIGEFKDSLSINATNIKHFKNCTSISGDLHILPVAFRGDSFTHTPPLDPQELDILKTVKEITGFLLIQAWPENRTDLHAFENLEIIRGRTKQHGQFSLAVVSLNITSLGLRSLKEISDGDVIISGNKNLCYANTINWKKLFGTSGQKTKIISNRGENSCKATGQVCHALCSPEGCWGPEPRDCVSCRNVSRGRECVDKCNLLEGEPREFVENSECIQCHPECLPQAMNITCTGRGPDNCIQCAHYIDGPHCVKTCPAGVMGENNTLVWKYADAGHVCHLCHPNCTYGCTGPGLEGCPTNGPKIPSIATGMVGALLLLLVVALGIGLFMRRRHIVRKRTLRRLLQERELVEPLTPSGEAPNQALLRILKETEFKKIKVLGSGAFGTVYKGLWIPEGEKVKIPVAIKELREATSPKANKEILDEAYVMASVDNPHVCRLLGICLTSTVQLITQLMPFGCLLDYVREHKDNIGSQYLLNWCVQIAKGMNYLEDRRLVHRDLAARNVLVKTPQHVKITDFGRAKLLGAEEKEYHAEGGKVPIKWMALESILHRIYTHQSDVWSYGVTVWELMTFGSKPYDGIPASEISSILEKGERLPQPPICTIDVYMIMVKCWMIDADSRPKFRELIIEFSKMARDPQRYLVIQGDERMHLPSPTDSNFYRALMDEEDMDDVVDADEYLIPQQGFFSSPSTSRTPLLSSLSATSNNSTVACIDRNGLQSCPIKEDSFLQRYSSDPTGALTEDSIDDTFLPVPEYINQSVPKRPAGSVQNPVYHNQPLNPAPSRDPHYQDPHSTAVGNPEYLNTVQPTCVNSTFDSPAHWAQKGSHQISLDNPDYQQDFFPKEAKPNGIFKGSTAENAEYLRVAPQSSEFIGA
# T3 sequence (P00533 25-1210 T790M/L858R): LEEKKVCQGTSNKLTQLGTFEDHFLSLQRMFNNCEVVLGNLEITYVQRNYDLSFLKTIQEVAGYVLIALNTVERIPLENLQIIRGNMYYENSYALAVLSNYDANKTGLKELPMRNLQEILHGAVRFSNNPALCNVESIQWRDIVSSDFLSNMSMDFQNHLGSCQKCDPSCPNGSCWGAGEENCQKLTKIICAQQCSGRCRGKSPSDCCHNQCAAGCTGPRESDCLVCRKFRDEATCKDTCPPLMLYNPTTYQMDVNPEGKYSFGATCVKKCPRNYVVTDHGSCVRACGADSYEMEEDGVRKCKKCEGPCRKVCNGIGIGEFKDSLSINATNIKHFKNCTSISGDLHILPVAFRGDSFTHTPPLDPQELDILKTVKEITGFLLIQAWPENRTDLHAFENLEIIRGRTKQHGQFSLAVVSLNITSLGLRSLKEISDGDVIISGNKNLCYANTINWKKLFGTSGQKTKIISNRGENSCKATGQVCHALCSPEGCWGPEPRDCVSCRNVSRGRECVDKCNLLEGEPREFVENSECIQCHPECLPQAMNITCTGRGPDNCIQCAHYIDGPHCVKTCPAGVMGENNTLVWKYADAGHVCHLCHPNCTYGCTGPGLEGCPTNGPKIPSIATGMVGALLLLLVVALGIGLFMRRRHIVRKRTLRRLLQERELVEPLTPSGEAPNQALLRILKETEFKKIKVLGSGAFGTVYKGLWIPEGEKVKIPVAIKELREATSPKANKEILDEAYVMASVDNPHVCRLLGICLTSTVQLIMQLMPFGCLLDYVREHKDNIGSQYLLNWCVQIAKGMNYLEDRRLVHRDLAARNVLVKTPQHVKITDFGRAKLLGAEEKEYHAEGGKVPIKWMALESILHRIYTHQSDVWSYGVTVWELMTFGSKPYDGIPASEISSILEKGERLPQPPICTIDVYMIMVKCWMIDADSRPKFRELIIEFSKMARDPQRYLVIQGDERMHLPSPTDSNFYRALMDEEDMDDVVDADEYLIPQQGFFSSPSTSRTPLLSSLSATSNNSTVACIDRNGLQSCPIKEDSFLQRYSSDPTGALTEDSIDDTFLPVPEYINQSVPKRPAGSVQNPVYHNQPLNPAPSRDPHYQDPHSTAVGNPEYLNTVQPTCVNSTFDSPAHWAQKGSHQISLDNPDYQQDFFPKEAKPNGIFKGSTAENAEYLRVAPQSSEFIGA
# T8 sequence (P00533 with tags, fused parts or gaps DEL746-750/C797S limits assumed): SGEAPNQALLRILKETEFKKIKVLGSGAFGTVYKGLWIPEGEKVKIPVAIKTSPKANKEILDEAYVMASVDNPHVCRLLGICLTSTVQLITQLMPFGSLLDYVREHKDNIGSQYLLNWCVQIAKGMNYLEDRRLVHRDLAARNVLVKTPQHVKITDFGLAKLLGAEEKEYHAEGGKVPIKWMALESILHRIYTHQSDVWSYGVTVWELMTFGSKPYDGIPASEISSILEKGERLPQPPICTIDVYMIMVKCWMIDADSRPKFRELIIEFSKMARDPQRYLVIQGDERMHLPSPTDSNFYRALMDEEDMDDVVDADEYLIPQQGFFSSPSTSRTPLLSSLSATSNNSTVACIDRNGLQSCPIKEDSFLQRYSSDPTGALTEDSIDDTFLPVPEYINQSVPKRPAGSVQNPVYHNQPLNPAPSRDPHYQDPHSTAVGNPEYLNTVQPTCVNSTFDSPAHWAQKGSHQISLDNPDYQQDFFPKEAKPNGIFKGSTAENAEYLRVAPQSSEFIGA
IC50 (EGFR wild type; read-out: IC50 @WT) [µM],IC50 (EGFR L858R; read-out: IC50 @L858R) [µM],IC50 (EGFR L858R/T790M; read-out: IC50 @L858R-T790M) [µM],IC50 (EGFR Exon19Del; [3]) [µM],IC50 (EGFR Exon19Del/T790M; read-out: IC50 @Del19-T790M) [µM],IC50 (EGFR[T790M/C797S/L858R]; [4]) [µM],"IC50 [1, 5] [µM]",IC50 (EGFR (d746-750 C797S); read-out: IC50 @Del19-C797S) [µM],IC50 (EGFR (C797S L858R); read-out: IC50 @L858-C797S) [µM],"GI50 [2, 6] [µM]","GI50 [2, 7] [µM]","GI50 [2, 8] [µM]","GI50 [2, 9] [µM]","GI50 [2, 10] [µM]","GI50 [2, 11] [µM]","GI50 [2, 12] [µM]",GI50 (PC-9) [µM],Compound,also measured
> 5,> 5,> 5,0.942,0.033,1.99,0.031,> 0.5,> 5,0.086,0.032,2.69,0.024,0.096,0.432,0.012,0.122,"Cc1cc2cc(n1)-c1cnn(C)c1OCCCCCn1c(nc3ccc4c(c31)CN(C1COC1)CC4)NC2=O [Example B18, 5,30-dimethyl-17-(oxetan-3-yl)-7-oxa-4,5,13,17,24,26,31-heptaazahexacyclo[26.3.1.0^{2,6}.0^{13,25}.0^{14,23}.0^{15,20}]dotriaconta-1(31),2(6),3,14,20,22,24,28(32),29-nonaen-27-one]",
> 5,> 5,> 5,> 5,0.685,> 5,0.122,> 5,> 5,0.487,0.258,10,0.159,1.02,2.04,0.331,1.28,"Cc1cc2cc(n1)-c1cnn(C)c1OCCCCCn1c(nc3ccn(C)c(=O)c31)NC2=O [Example B20, 5,16,26-Trimethyl-7-oxa-4,5,13,16,20,22,27-heptaazapentacyclo[22.3.1.0^{2,6}.0^{13,21}.0^{14,19}]octacosa-1(27),2(6),3,14(19),17,20,24(28),25-octaene-15,23-dione]",
,,,,,,,,,0.022,0.015,0.195,0.0059,,0.442,0.0072,0.113,"Cc1cc2cc(n1)-c1cnn(C)c1OCCCCCn1c(nc3ccc4c(c31)CCN(CCN(C)C)C4)NC2=O [Example B23, 18-[2-(Dimethylamino)ethyl]-5,30-dimethyl-7-oxa-4,5,13,18,24,26,31-heptaazahexacyclo[26.3.1.0^{2,6}.0^{13,25}.0^{14,23}.0^{15,20}]dotriaconta-1(31),2(6),3,14,20,22,24,28(32),29-nonaen-27-one]","IC50 (EGFR wild type; IC50 @WT): > 5 µM; IC50 (EGFR L858R; IC50 @L858R): > 5 µM; IC50 (EGFR L858R/T790M; IC50 @L858R-T790M): 0.012 µM; IC50 (EGFR Exon19Del; IC50 @Del19, EGFR Exon19Del): 0.016 µM; IC50 (EGFR Exon19Del/T790M; IC50 @Del19-T790M): 0.0038 µM; IC50 (EGFR[T790M/C797S/L858R]; IC50 @T790M- C797S - L858R): 0.0054 µM; IC50 ([1]; IC50 @T790M - C797S - Del19, EGFR[T790M/C797S/d746-750]): 0.0025 µM; IC50 (EGFR (d746-750 C797S); IC50 @Del19-C797S): 0.0065 µM; IC50 (EGFR (C797S L858R); IC50 @L858-C797S): 0.073 µM"
> 5,0.352,0.028,0.045,0.017,0.013,0.0086,0.028,0.204,0.026,0.009,0.171,0.019,0.037,0.149,0.011,0.155,Cc1cc2cc(n1)-c1cnn(C)c1OCCN1CC3CCC(CC3)(C1)n1c(nc3ccc(N4CC[C@@H](N(C)C)C4)cc31)NC2=O [Example B29],
